Measured values reported in US20240182445A1 (ONO PHARMACEUTICAL CO., LTD., priority 2019, published 2024).

Target: T1, human TREK-1 (Homo sapiens, UniProt O95069)
T1 construct: expressed in transfected cells
T1 sequence (O95069 1-426): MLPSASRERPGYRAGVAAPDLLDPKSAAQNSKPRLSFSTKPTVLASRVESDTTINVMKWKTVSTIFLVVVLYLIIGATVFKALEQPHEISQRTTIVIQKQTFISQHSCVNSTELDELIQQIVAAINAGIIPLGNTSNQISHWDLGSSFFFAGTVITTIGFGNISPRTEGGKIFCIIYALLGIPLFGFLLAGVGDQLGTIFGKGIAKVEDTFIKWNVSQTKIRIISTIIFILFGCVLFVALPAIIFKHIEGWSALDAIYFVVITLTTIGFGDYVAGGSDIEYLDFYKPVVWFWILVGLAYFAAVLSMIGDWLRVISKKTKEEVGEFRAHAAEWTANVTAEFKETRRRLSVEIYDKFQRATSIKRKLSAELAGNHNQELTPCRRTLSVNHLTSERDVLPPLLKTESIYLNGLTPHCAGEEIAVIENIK
Assay: TREK-1 Thallium (Tl+) flux assay, Method 1
Format: cell-based
Details: TREK-1 Thallium (Tl+) flux assay; no *^12 (Method 2) mark on these rows
How it was run: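 CHO-K1 cells stably expressing human TREK-1, loaded with Thallos dye, received compound or 0.3% DMSO vehicle for 10 min before thallium stimulus buffer. ΔRatio is fluorescence at 25 s after thallium addition over mean pre-addition fluorescence; % inhibition calculated from it.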

Row | IC50 [nM] | Structure (SMILES)
1 | 570 | Cc1cc(C#Cc2ccc(F)cc2)cnc1NC(=O)c1c(Cl)cnn1C1CCN(C(=O)C(C)C)C1 (stereo not shown) [Compound 305, 4-chloro-N-(5-((4-fluorophenyl)ethynyl)-3-methylpyridin-2-yl)-1-(1-isobutyrylpyrrolidin-3-yl)-1H-pyrazole-5-carboxamide]
2 | 580 | Cc1cc(C#Cc2ccccc2)cnc1NC(=O)c1c(Cl)cnn1C1CCOC1 (stereo not shown) [Compound 306, 4-chloro-N-(3-methyl-5-(phenylethynyl)pyridin-2-yl)-1-(tetrahydrofuran-3-yl)-1H-pyrazole-5-carboxamide]
3 | 580 | Cc1cc(C#Cc2ccccc2)cnc1NC(=O)c1c(Cl)cnn1C1CCN(C(=O)OC(C)(C)C)C1 (stereo not shown) [Compound 307, tert-butyl 3-(4-chloro-5-((3-methyl-5-(phenylethynyl)pyridin-2-yl)carbamoyl)-1H-pyrazol-1-yl)pyrrolidine-1-carboxylate]
4 | 580 | Cc1cc(C#Cc2ccccc2)cnc1NC(=O)c1c(Cl)cnn1CCC1CCN(C(=O)OC(C)(C)C)CC1 [Compound 308, tert-butyl 4-(2-(4-chloro-5-((3-methyl-5-(phenylethynyl)pyridin-2-yl)carbamoyl)-1H-pyrazol-1-yl)ethyl)piperidine-1-carboxylate]
5 | 580 | Cc1cc(C#Cc2ccccc2)cnc1NC(=O)c1c(Cl)cnn1[C@H]1CC[C@@H](NC(=O)OC(C)(C)C)CC1 [Compound 309, Tert-butyl (cis-4-(4-chloro-5-((3-methyl-5-(phenylethynyl)pyridin-2-yl)carbamoyl)-1H-pyrazol-1-yl)cyclohexyl)carbamate]
6 | 580 | Cc1cc(C#Cc2ccc(F)cc2)cnc1NC(=O)c1c(Cl)cnn1C1CC2(CCN(C(=O)C3COCCO3)C2)C1 (stereo not shown) [Compound 310, 4-chloro-1-[6-(1,4-dioxane-2-carbonyl)-6-azaspiro[3.4]octan-2-yl]-N-{5-[(4-fluorophenyl)ethynyl]-3-methylpyridin-2-yl}-1H-pyrazole-5-carboxamide]
7 | 590 | CC(=O)N1CCC(CCn2ncc(Cl)c2C(=O)Nc2ncc(C#Cc3cccs3)cc2F)CC1 [Compound 311, 1-(2-(1-acetylpiperidin-4-yl)ethyl)-4-chloro-N-(3-fluoro-5-(thiophen-2-ylethynyl)pyridin-2-yl)-1H-pyrazole-5-carboxamide]
8 | 590 | CC(=O)N1CCC2(CC(n3ncc(Cl)c3C(=O)Nc3ncc(C#Cc4ccc(F)cc4)cc3C)C2)C1 (stereo not shown) [Compound 312, 1-(6-acetyl-6-azaspiro[3.4]octan-2-yl)-4-chloro-N-{5-[(4-fluorophenyl)ethynyl]-3-methylpyridin-2-yl}-1H-pyrazole-5-carboxamide]
9 | 590 | CC(=O)N1CCC(Cn2ncc(Cl)c2C(=O)Nc2ncc(C#Cc3ccc(F)cc3)cc2C)C(F)(F)C1 (stereo not shown) [Compound 313, 1-((1-acetyl-3,3-difluoropiperidin-4-yl)methyl)-4-chloro-N-(5-((4-fluorophenyl)ethynyl)-3-methylpyridin-2-yl)-1H-pyrazole-5-carboxamide]
10 | 590 | Cc1cc(C#Cc2ccc(F)cc2)cnc1NC(=O)c1c(Cl)cnn1CC1C2CC1CN(C(=O)C(C)C)C2 (stereo not shown) [Compound 314, 4-chloro-N-(5-((4-fluorophenyl)ethynyl)-3-methylpyridin-2-yl)-1-((3-isobutyryl-3-azabicyclo[3.1.1]heptan-6-yl)methyl)-1H-pyrazole-5-carboxamide]
11 | 600 | CC(C)(C)OC(=O)N1CC[C@H](n2ncc(Cl)c2C(=O)Nc2ncc(C#Cc3ccccc3)cc2F)C1 [Compound 315, tert-butyl (S)-3-(4-chloro-5-((3-fluoro-5-(phenylethynyl)pyridin-2-yl)carbamoyl)-1H-pyrazol-1-yl)pyrrolidine-1-carboxylate]
12 | 610 | Cc1ccc(C#Cc2cnc(NC(=O)c3c(Cl)cnn3[C@H]3CCOC3)c(C)c2)cc1 [Compound 316, (S)-4-chloro-N-(3-methyl-5-(p-tolylethynyl)pyridin-2-yl)-1-(tetrahydrofuran-3-yl)-1H-pyrazole-5-carboxamide]
13 | 610 | Cc1cc(C#Cc2ccccc2)cnc1NC(=O)c1c(Cl)cnn1[C@H]1C[C@@H]2CN(C(=O)C(C)C)C[C@@H]2C1 [Compound 317, 4-chloro-N-[3-methyl-5-(phenylethynyl)pyridin-2-yl]-1-[(3aR,5s,6aS)-2-(2-methylpropanoyl)octahydrocyclopenta [c]pyrrol-5-yl]-1H-pyrazole-5-carboxamide]
14 | 610 | CC1CN(C(=O)OC(C)(C)C)CCC1Cn1ncc(Cl)c1C(=O)Nc1ncc(C#Cc2ccccc2)cc1F (stereo not shown) [Compound 318, tert-butyl 4-((4-chloro-5-((3-fluoro-5-(phenylethynyl)pyridin-2-yl)carbamoyl)-1H-pyrazol-1-yl)methyl)-3-methylpiperidine-1-carboxylate]
15 | 620 | Cc1cc(C#Cc2ccc(F)cc2)cnc1NC(=O)c1c(Cl)cnn1C[C@H]1CCCN(C(=O)C(C)C)C1 [Compound 320, (S)-4-chloro-N-(5-((4-fluorophenyl)ethynyl)-3-methylpyridin-2-yl)-1-((1-isobutyrylpiperidin-3-yl)methyl)-1H-pyrazole-5-carboxamide]
16 | 630 | Cc1cc(C#Cc2ccccc2)cnc1NC(=O)c1c(Cl)cnn1CCC1CCCO1 (stereo not shown) [Compound 321, 4-chloro-N-(3-methyl-5-(phenylethynyl)pyridin-2-yl)-1-(2-(tetrahydrofuran-2-yl)ethyl)-1H-pyrazole-5-carboxamide]
17 | 630 | Cc1cc(C#Cc2ccc(F)cc2)cnc1NC(=O)c1c(Cl)cnn1[C@H]1CCOC1 [Compound 322, (S)-4-chloro-N-(5-((4-fluorophenyl)ethynyl)-3-methylpyridin-2-yl)-1-(tetrahydrofuran-3-yl)-1H-pyrazole-5-carboxamide]
18 | 630 | Cc1cc(C#Cc2ccccc2)cnc1NC(=O)c1c(Cl)cnn1CCN1CCN(C(=O)OC(C)(C)C)CC1 [Compound 323, tert-butyl 4-(2-(4-chloro-5-((3-methyl-5-(phenylethynyl)pyridin-2-yl)carbamoyl)-1H-pyrazol-1-yl)ethyl)piperazine-1-carboxylate]
19 | 640 | CC(C)(C)OC(=O)N[C@H]1C[C@@H](n2ncc(Cl)c2C(=O)Nc2ncc(C#Cc3ccccc3)cc2F)C1 [Compound 325, tert-butyl (cis-3-(4-chloro-5-((3-fluoro-5-(phenylethynyl)pyridin-2-yl)carbamoyl)-1H-pyrazol-1-yl)cyclobutyl)carbamate]
20 | 650 | Cc1cc(C#Cc2ccccc2)cnc1NC(=O)c1c(Cl)cnn1C1CCCOC1 (stereo not shown) [Compound 327, 4-chloro-N-(3-methyl-5-(phenylethynyl)pyridin-2-yl)-1-(tetrahydro-2H-pyran-3-yl)-1H-pyrazole-5-carboxamide]
21 | 650 | Cc1cc(C#Cc2ccccc2)cnc1NC(=O)c1c(Cl)cnn1C1CCN(C(=O)OC(C)(C)C)CC1 [Compound 328]
22 | 650 | Cc1cc(C#Cc2ccccc2)cnc1NC(=O)c1c(Cl)cnn1[C@H]1C[C@@H]2CN(C(=O)OC(C)(C)C)C[C@@H]2C1 [Compound 329, tert-butyl (3aR,5s,6aS)-5-(4-chloro-5-{[3-methyl-5-(phenylethynyl)pyridin-2-yl]carbamoyl}-1H-pyrazol-1-yl)hexahydrocyclopenta[c]pyrrole-2(1H)-carboxylate]
23 | 650 | Cc1cc(C#Cc2ccccc2)cnc1NC(=O)c1c(Cl)cnn1C1CC2(C1)CN(C(=O)OC(C)(C)C)C2 [Compound 330, tert-butyl 6-(4-chloro-5-((3-methyl-5-(phenylethynyl)pyridin-2-yl)carbamoyl)-1H-pyrazol-1-yl)-2-azaspiro[3.3]heptane-2-carboxylate]
24 | 660 | CC(=O)N1C[C@H]2C[C@H](n3ncc(Cl)c3C(=O)Nc3ncc(C#Cc4ccc(F)cc4)cc3C)C[C@H]2C1 [Compound 331, 1-[(3aR,5s,6aS)-2-acetyloctahydrocyclopenta[c]pyrrol-5-yl]-4-chloro-N-{5-[(4-fluorophenyl)ethynyl]-3-methylpyridin-2-yl}-1H-pyrazole-5-carboxamide]
25 | 660 | Cc1cc(C#Cc2ccc(F)cc2)cnc1NC(=O)c1c(Cl)cnn1C1CC2(CCN(C(=O)C(C)C)C2)C1 (stereo not shown) [Compound 332, 4-chloro-N-{5-[(4-fluorophenyl)ethynyl]-3-methylpyridin-2-yl}-1-[6-(2-methylpropanoyl)-6-azaspiro[3.4]octan-2-yl]-1H-pyrazole-5-carboxamide]
26 | 670 | Cc1cc(C#Cc2cccc(F)c2)cnc1NC(=O)c1c(Cl)cnn1[C@H]1CCOC1 [Compound 333, (S)-4-chloro-N-(5-((3-fluorophenyl)ethynyl)-3-methylpyridin-2-yl)-1-(tetrahydrofuran-3-yl)-1H-pyrazole-5-carboxamide]
27 | 670 | CC(C)(C)OC(=O)N1CC2(CC(n3ncc(Cl)c3C(=O)Nc3ncc(C#Cc4ccccc4)cc3F)C2)C1 [Compound 334, tert-butyl 6-(4-chloro-5-((3-fluoro-5-(phenylethynyl)pyridin-2-yl)carbamoyl)-1H-pyrazol-1-yl)-2-azaspiro[3.3]heptane-2-carboxylate]

Row | Structure (SMILES) | IC50 [nM]
28 | CC(=O)N1CC2CC(C1)C2Cn1ncc(Cl)c1C(=O)Nc1ncc(C#Cc2ccccc2)cc1F (stereo not shown) [Compound 326, 1-((3-acetyl-3-azabicyclo[3.1.1]heptan-6-yl)methyl)-4-chloro-N-(3-fluoro-5-(phenylethynyl)pyridin-2-yl)-1H-pyrazole-5-carboxamide] | 640
